The text below walks through data of paper PMC10992699, “Comparative structure activity and target exploration of 1,2-diphenylethynes in Haemonchus contortus and Caenorhabditis elegans” (International Journal for Parasitology: Drugs and Drug …, 2024).

A short description of series [1]: HepG2 cytotoxicity (CellTiter-Glo). Type of series: cell-based. The conditions noted are these: human, HepG2 cells, read-out: half-maximal cytotoxic concentration (CC50). On the procedure: The cytotoxicity of UMW-9729 and six key derivatives (12, 14, 15, 16, 18 and 25) on human hepatoma (HepG2) cells was evaluated as described previously ([Gilson et al., 2017]). In short, HepG2 cells were first cultured (in an incubator at 5 % (v/v) CO2, 37 °C, >90 % humidity) in Dulbecco's modified Eagle's medium (DMEM) supplemented with 5 % foetal bovine serum (FBS). Test compounds were serially-diluted (10-points, 2-fold serial dilution, top concentration of 50 μM) in DMEM + 10 % FBS, adjusted to a 0.5 % DMSO concentration and arrayed across a 384-well plate. Bortezomib (10 μM) was used as a positive control; 0.5 % DMSO was used as a negative control. HepG2 cells (1 × 10^3 cells per 50 μL of DMEM + 10 % FBS) were then seeded into wells of the assay plate; plates were the incubated (5 % (v/v) CO2, 37 °C, >90 % humidity) for 48 h. Cell proliferation was subsequently determined using CellTiter-Glo (Promega) and normalised using the negative-controls to calculate as a percentage. All compounds were tested in duplicate. The half-maximal cytotoxic (CC50) values were calculated by the Dotmatics (v.5.3) and Spotfire (v.7.11.1) software using a nonlinear regression four-parameter fit analysis.
(In ATP-based viability assays light output follows the ATP content of the culture.)

The subject of series [2] is human hepatoma (HepG2) cells. Nature of the series: HepG2 mitotoxicity (galactose medium, crystal violet staining). Type of series: cell-based. The note with it: 48 h. The protocol: The mitotoxicity of UMW-9729 and six key derivatives (12, 14, 15, 16, 18 and 25) on human hepatoma (HepG2) cells was evaluated as described previously using an established protocol ([Swiss and Will, 2011]; [Kamalian et al., 2015]; [Śliwka et al., 2016]). Test compounds were serially-diluted (7-points, 2-fold serial dilution, 50 μM top concentration) in DMEM (Thermo Fisher Scientific, USA) with GlutaMax™ supplemented with 25 mM D-galactose, 10 % heat-inactivated FBS, 100 IU/mL of penicillin, 100 μg/mL of streptomycin and 0.25 μg/mL of amphotericin B (denoted DMEM*). Monepantel and moxidectin (prepared in the same manner as the test compounds) were included as reference compounds. M-666 ([…]; [Le et al., 2018]) was used as a positive control; 0.25 % DMSO was used as a negative control. HepG2 cells were seeded into wells of a 96-well plate in 80 μL of DMEM* (at 1 × 10^5 cells per well) and allowed to adhere for 16 h (5 % (v/v) CO2, 37 °C, >90% humidity)prior to incubation with individual compounds, at a final volume of 100 μL. […] Following 48 h of incubation with compounds, cell viability was determined by crystal violet staining ([Śliwka et al., 2016]). The absorbance (595 nm) of treated cells was normalised using the negative-controls to calculate the cell viability. […]

A further series deals with T1, UBL-5 (Caenorhabditis elegans, UniProt P91302).
T1 construct: from tissue; host or cells: whole-worm lysate of C. elegans N2 (young adults / L4s)
In words: Thermal proteome profiling (TPP). The conditions noted are these: compound 50 μM, C. elegans lysate, 37-67 °C. It is filed as binding.

The next series addresses T2, PGP-1 (Caenorhabditis elegans, UniProt P34712).
T2 construct: from tissue; host or cells: whole-worm lysate of C. elegans N2 (young adults / L4s), NP-40 extract
In words: Thermal proteome profiling (TPP). Type of series: binding. The note with it: compound 50 μM, C. elegans lysate, 37-67 °C.

The next series concerns the target T3, UNC-11 (Caenorhabditis elegans, UniProt Q9XZI6).
T3 construct: from tissue; host or cells: whole-worm lysate of C. elegans N2 (young adults / L4s)
In words: Thermal proteome profiling (TPP). Type of series: binding. The conditions noted are these: compound 50 μM, C. elegans lysate, 37-67 °C.

A further series has as its target T4, TRXR-1 (Caenorhabditis elegans, UniProt Q17745).
T4 construct: from tissue; host or cells: whole-worm lysate of C. elegans N2 (young adults / L4s)
Nature of the series: Thermal proteome profiling (TPP). The note with it: compound 50 μM, C. elegans lysate, 37-67 °C. Type of series: binding.

In a further series the test system is C. elegans young adults. Further details: method as in Taki et al., 2021a. The note with it: previous HitFinder library screen, ref Taki et al., 2021a, cited from earlier work.

T3 sequence (Q9XZI6 whole entry): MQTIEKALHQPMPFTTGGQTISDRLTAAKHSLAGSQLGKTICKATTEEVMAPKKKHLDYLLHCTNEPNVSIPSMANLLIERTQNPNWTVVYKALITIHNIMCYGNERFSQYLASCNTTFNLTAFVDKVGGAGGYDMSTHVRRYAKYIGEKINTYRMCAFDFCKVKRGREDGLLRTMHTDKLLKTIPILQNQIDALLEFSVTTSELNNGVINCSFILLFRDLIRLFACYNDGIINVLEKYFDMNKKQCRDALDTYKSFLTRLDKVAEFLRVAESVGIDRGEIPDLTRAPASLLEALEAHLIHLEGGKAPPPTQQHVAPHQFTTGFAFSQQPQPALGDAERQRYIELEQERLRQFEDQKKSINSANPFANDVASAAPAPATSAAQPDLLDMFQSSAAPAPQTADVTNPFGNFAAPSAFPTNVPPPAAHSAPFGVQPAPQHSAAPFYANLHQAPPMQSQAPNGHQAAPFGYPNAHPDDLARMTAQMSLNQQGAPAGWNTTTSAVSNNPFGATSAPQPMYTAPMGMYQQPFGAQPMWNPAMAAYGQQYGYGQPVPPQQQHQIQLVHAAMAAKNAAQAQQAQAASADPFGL
T1 sequence (P91302 whole entry): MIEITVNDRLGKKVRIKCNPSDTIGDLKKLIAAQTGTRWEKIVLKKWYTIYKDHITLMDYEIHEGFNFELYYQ
T2 sequence (P34712 whole entry): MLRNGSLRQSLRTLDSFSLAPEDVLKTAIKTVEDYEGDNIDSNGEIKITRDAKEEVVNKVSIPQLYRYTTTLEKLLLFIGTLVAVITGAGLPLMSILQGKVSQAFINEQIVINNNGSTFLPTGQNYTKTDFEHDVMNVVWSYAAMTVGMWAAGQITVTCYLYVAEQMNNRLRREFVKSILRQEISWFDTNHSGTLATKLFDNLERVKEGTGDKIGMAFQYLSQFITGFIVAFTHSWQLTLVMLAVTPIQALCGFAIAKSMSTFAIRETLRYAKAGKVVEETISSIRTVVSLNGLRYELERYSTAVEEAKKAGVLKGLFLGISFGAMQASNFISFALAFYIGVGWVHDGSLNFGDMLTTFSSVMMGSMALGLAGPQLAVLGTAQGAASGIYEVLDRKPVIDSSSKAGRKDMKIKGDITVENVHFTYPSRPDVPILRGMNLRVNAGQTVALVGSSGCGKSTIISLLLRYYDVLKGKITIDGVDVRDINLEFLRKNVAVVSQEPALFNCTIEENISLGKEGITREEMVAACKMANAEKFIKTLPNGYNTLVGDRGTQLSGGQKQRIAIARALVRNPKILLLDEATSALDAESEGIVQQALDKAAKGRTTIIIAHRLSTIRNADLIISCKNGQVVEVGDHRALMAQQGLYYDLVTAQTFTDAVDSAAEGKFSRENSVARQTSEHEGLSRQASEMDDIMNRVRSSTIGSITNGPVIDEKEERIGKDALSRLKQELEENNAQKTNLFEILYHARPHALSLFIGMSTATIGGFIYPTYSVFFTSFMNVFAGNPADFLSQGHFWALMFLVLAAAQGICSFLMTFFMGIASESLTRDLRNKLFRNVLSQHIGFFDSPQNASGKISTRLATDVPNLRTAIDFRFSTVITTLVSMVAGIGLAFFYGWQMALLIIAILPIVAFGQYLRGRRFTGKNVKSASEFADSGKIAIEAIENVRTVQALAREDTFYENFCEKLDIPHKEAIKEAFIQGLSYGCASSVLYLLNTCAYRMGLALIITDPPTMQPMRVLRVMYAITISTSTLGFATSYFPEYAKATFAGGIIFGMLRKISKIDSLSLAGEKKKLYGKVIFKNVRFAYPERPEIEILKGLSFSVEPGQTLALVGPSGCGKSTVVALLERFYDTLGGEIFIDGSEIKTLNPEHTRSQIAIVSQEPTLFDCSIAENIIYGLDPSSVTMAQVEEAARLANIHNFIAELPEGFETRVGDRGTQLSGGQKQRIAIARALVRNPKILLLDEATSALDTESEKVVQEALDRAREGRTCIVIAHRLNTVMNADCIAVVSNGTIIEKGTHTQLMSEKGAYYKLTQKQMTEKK
T4 sequence (Q17745 whole entry): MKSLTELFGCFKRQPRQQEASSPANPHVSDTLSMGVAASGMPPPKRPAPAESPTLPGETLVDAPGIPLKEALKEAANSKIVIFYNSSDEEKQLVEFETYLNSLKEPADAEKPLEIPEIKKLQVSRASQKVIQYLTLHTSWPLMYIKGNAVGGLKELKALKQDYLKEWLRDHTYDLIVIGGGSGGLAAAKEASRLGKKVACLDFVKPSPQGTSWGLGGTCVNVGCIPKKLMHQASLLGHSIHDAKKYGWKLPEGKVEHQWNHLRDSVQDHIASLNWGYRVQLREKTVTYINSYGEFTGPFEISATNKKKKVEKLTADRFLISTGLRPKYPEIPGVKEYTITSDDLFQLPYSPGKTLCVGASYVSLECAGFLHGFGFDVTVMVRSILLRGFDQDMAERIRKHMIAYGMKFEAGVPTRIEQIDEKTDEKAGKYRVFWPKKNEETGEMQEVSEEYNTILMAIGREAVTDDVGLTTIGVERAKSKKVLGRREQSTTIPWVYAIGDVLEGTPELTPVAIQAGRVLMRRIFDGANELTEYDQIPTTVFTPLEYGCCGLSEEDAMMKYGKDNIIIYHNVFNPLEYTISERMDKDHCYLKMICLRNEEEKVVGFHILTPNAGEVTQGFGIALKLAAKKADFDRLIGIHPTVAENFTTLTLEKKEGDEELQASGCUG

Consider `C(#Cc1ccc(-c2ccn[nH]2)cc1)c1ccccc1` [UMW-9729], for which the CC50 at 48 h in series [1] is above 40 µM. In addition, the “half-maximal mitotoxic concentration (MC50)” value in series [2] was above 40 µM. For the same molecule, the F-statistic on UBL-5 (NPARC) is recorded as 34.8; at PGP-1 (NPARC) it was 27.4; on UNC-11 (NPARC) it was 23.0; at TRXR-1 (NPARC) it was 20.2. The “thermal stability of protein in the presence of compound” value at UBL-5, on PGP-1, at UNC-11 and at TRXR-1 was “stabilised” in each case. The “maximum motility inhibition, young adults of C. elegans” value in the series on C. elegans young adults was 88.9%. For the same molecule, the IC50 in the series with C. elegans young adults (read-out: half-maximal inhibitory concentration (IC50), motility of young adults of C. elegans) was 5.6 µM.
